EC50 data for 16 compounds are collected here from US20220056019A1, “FARNESOID X RECEPTOR AGONISTS AND USES THEREOF” (Metacrine, Inc., priority 2018, published 2022).

Some results are limits rather than exact numbers.

The test concerns the target T1, hFXR (Homo sapiens, UniProt Q96RI1).
T1 construct: expressed in transfected cells; host or cells: CV-1 cells
T1 sequence (Q96RI1 1-486): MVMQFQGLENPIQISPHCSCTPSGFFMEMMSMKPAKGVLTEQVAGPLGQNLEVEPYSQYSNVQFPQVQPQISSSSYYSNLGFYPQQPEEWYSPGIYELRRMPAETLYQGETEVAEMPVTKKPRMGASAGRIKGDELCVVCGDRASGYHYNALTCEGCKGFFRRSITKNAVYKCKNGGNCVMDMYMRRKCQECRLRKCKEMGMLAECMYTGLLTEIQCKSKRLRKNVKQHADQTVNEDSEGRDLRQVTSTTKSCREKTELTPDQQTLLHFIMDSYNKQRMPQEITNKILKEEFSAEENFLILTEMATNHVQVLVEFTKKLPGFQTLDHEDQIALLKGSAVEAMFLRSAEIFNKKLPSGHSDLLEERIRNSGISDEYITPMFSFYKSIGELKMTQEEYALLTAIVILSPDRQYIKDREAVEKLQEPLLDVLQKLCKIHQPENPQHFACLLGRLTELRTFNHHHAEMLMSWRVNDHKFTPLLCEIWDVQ
T1 sequence (P19793 1-462 partner): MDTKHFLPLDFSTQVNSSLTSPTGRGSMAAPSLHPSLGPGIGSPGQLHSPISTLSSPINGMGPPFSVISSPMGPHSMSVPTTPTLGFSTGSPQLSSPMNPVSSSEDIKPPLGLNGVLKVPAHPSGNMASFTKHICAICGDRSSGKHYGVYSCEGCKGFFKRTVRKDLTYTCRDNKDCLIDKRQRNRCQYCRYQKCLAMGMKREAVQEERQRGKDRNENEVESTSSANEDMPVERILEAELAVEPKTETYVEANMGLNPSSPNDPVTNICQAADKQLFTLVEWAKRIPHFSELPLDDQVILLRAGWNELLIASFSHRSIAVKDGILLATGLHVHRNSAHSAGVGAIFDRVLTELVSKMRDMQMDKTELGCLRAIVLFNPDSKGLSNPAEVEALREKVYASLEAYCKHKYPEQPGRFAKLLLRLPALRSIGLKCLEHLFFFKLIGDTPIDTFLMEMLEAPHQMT
The test is described as follows: In Vitro FXR Assay (TK): TK-ECRE-luc reporter in transfected CV-1 cells. The format is cell-based. As to conditions: 18 hrs incubation, luminescence. The essentials:
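CV-1 cells in DMEM with 10% charcoal-stripped FBS were transiently co-transfected with hFXR, hRXR, TK-ECRE-luc reporter and pCMX-YFP plasmids over 18 h at 37 °C. Compounds serially diluted in DMSO were added for 18 h; cells were then lysed and luciferase luminescence measured.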
One may read the EC50 as the midpoint of the concentration-response curve. Low values mean greater potency, high ones weaker potency. `COc1ccc(C23CCC(CN(c4cc(-c5cnn(C6CCC6)c5)ccn4)C(=O)[C@H]4CC[C@H](OC(=O)N5CC(O)C5)CC4)(CC2)CC3)cc1C` [Compound 23.08, 4-((4-(1-Cyclobutyl-1H-pyrazol-4-yl)pyridin-2-yl)((4-(4-methoxy-3-methylphenyl)bicyclo[2.2.2]octan-1-yl)methyl)carbamoyl)(trans-cyclohexyl) 3-hydroxyazetidine-1-carboxylate] had an EC50 of no more than 0.05 µM.
For the compound `COc1ccc(C23CCC(CN(c4cc(-n5cc(C(C)C)cn5)ccn4)C(=O)[C@H]4CC[C@H](OC(=O)N5CC(O)C5)CC4)(CC2)CC3)cc1C` [Compound 23.14, 4-((4-(4-Isopropyl-1H-pyrazol-1-yl)pyridin-2-yl)((4-(4-meth-oxy-3-methylphenyl)bi-cyclo[2.2.2]octan-1-yl)meth-yl)carbamoyl)cyclohexyl trans-3-hydroxyazetidine-1-carboxylate], the EC50 was no more than 0.05 µM.
Compound `COc1ccc(C23CCC(CN(c4cc(-c5cnn(C(C)C)c5)ccn4)C(=O)[C@H]4CC[C@H](OC(=O)N5CCOCC5)CC4)(CC2)CC3)cc1C` [Compound 4.14, 4-((4-(1-Isopropyl-1H-pyrazol-4-yl)pyridin-2-yl)((4-(4-methoxy-3-methylphenyl)bicyclo [2.2.2]octan-1-yl)methyl)carbamoyl)cyclohexyl morpholine-trans-4-carboxylate] returned an EC50 of no more than 0.05 µM.
For `COc1ccc(C23CCC(CN(c4cc(-c5cnn(C(C)C)c5)ccn4)C(=O)[C@H]4CC[C@H](OC(=O)N(C)CCO)CC4)(CC2)CC3)cc1C` [Compound 4.51, 4-((4-(1-Isopropyl-1H-pyrazol-4-yl)pyridin-2-yl) ((4-(4-methoxy-3-methylphenyl)bicyclo [2.2.2]octan-1-yl)methyl)carbamoyl)cyclohexyl (2-hydroxyethyl)(methyl) trans-carbamate], the EC50 was no more than 0.05 µM.
`COc1ccc([C@H]2CC[C@H](CN(c3cc(-c4cnc(C5CC5)s4)ccn3)C(=O)[C@H]3CC[C@H](OC(=O)NC4COC4)CC3)CC2)cc1C` [Compound 2.54, trans-4-((4-(2-Cyclopropylthiazol-5-yl)pyridin-2-yl)(((trans)-4-(4-methoxy-3-methylphenyl)cyclohexyl)methyl)carbamoyl)cyclohexyl oxetan-3-ylcarbamate] displayed an EC50 of no more than 0.05 µM.
For `COCC(=O)N[C@H]1CC[C@H](C(=O)N(CC23CCC(c4ccc(OC)c(C)c4)(CC2)CC3)c2cc(-c3cnc(C4CC4)s3)ccn2)CC1` [Compound 9.07, (trans)-N-(4-(2-Cyclopropylthiazol-5-yl)pyridin-2-yl)-N-((4-(4-methoxy-3-methylphenyl)bicyclo[2.2.2]octan-1-yl)methyl)-4-(2-methoxyacetamido)cyclohexanecar-boxamide], the EC50 is no more than 0.05 µM.
In the case of `CCC(=O)NC[C@H]1CC[C@H](C(=O)N(C[C@H]2CC[C@H](c3ccc(OC)c(C)c3)CC2)c2cccc(-c3cnn(C(C)C)c3)c2)CC1` [Compound 12.01, (trans)-N-(3-(1-Isopropyl-1H-pyrazol-4-yl)phenyl)-N-(((trans)-4-(4-methoxy-3-methylphenyl)cyclohexyl)methyl)-4-(propionamidomethyl)cyclohexane-carboxamide] it was 0.05 to 1 µM; in that of `COc1ccc(C23CCC(CN(c4nccc(-c5cnn(C6(C)CCC6)c5)n4)C(=O)[C@H]4CC[C@H](OC(=O)N5CC(O)C5)CC4)(CC2)CC3)cc1C` [Compound 25.25, 4-(((4-(4-Methoxy-3-methylphenyl)bicyclo[2.2.2]octan-1-yl)methyl)(4-(1-(1-methylcyclobutyl)-1H-pyrazol-4-yl)pyrimidin-2-yl)carbamoyl)cyclohexyl trans-3-hydroxyazetidine-1-carboxylate], no more than 0.05 µM.
`CCc1nc(-c2ccnc(N(CC34CCC(c5ccc(OC)c(C)c5)(CC3)CC4)C(=O)[C@H]3CC[C@H](OC(=O)N4CC(CO)C4)CC3)c2)co1` [Compound 4.30, 4-((4-(2-Ethyloxazol-4-yl)pyridin-2-yl)((4-(4-methoxy-3-methylphenyl)bicyclo[2.2.2]octan-1-yl)methyl)carbamoyl)(trans-cyclohexyl) 3-(hydroxymethyl)azetidine-1-carboxylate] showed an EC50 of no more than 0.05 µM.
Turning to `CCOc1ncc(-c2ccnc(N(C[C@H]3CC[C@H](c4ccc(OC)c(C)c4)CC3)C(=O)[C@H]3CC[C@H](OC(=O)N4CC(O)C4)CC3)c2)s1` [Compound 2.43, trans-4-((4-(2-Ethoxythiazol-5-yl)pyridin-2-yl)((trans-4-(4-methoxy-3-methylphenyl)cyclohexyl)methyl)carbamoyl)cyclohexyl 3-hydroxyazetidine-1-carboxylate], the EC50 is no more than 0.05 µM.
In the case of `COc1ccc([C@H]2CC[C@H](CN(c3cccc(-c4cnn(C5CC5)c4)c3)C(=O)[C@H]3CC[C@H](C(C)O)CC3)CC2)cc1C` (stereo partly drawn) [Compound 21, trans-N-(3-(1-Cyclopropyl-1H-pyrazol-4-yl)phenyl)-4-(1-hydroxyethyl)-N-((trans-4-(4-methoxy-3-methylphenyl)cyclohexyl)methyl)cyclohexanecarboxamide] it was no more than 0.05 µM.
Take `COc1ccc(C23CCC(CN(c4ccc(F)c(-c5cnn(C(C)C)c5)c4)C(=O)[C@H]4CC[C@H](OC(=O)N5CC(C#N)C5)CC4)(CC2)CC3)cc1C` [Compound 25.11, 4-((4-Fluoro-3-(1-isopropyl-1H-pyrazol-4-yl)phenyl)((4-(4-methoxy-3-methylphenyl)bicyclo[2.2.2]octan-1-yl)methyl)carbamoyl)cyclohexyl trans-3-cyanoazetidine-1-carboxylate]: the EC50 is no more than 0.05 µM.
As to `COc1ccc(C23CCC(CN(c4cc(-c5cnc(C6CC6)s5)ccn4)C(=O)[C@H]4CC[C@H](NC(=O)CO)CC4)(CC2)CC3)cc1C` [Compound 9.08, (trans)-N-(4-(2-Cyclopropylthiazol-5-yl)pyridin-2-yl)-4-(2-hydroxyacetamido)-N-((4-(4-methoxy-3-methylphenyl)bicyclo[2.2.]octan-1-yl)methyl)cyclohexanecarboxamide], the EC50 was no more than 0.05 µM.
In the case of `COc1ccc(C23CCC(CN(c4cc(-c5cnc(C(C)C)s5)ccn4)C(=O)[C@H]4CC[C@H](NC(=O)CO)CC4)(CC2)CC3)cc1C` [Compound 9, (trans)-4-(2-Hydroxyacetamido)-N-(4-(2-isopropylthiazol-5-yl)pyridin-2-yl)-N-((4-(4-methoxy-3-methylphenyl)bicyclo[2.2.2]octan-1-yl)methyl)cyclohexanecarboxamide] it was no more than 0.05 µM; in that of `COc1ccc([C@H]2CC[C@H](CN(c3cc(-c4coc(C(C)C)n4)ccn3)C(=O)[C@H]3CC[C@H](OC(=O)N4CC(O)C4)CC3)CC2)cc1C` [Compound 2.24, trans-4-((4-(2-Isopropyloxazol-4-yl)pyridin-2-yl)(((trans)-4-(4-methoxy-3-methylphenyl)cyclohexyl)methyl)carbamoyl) cyclohexyl 3-hydroxyazetidine-1-carboxylate], no more than 0.05 µM.
Compound `COc1ccc([C@H]2CC[C@H](CN(c3cc(-c4cnc(C5CC5)s4)ccn3)C(=O)[C@H]3CC[C@H](OC(=O)NCC(C)(C)O)CC3)CC2)cc1C` [Compound 2, trans-4-((4-(2-Cyclopropylthiazol-5-yl)pyridin-2-yl)(((trans)-4-(4-methoxy-3-methylphenyl)cyclohexyl)methyl)carbamoyl)cyclohexyl (2-hydroxy-2-methylpropyl)carbamate] came in with an EC50 of no more than 0.05 µM.
